Marks after values point to notes of the source that are not given here.

Data set [1] is described as follows: In vitro skin permeation of angiotensin II, Franz cell infinite dose, EIA analysis. Type of data set: in vitro ADME, human. On the procedure:
Analysis of the peptide was carried out using an enzyme immunoassay (EIA) as described in the EIA booklet. Briefly, a competitive enzyme immunoassay which detects Ang II in biological matrices was employed. The principle of the assay is based upon the competition for antibody binding sites between biotinylated and non-biotinylated peptides. The biotin group on the biotinylated peptide is then conjugated to SA-HRP which in turn reacts with another substrate ([…]) leading to the formation of colour. The absorbance recorded from each well is a direct measure of the extent of binding for each peptide with the antibody. Absorbance was measured using a spectrophotometer. The method was validated by calibrating the response at different concentrations of the peptide (data not shown) and also the ability of the method to assess different concentrations of the penetrant in the presence of any matrices was investigated.
This is a well established physical method of enhancing skin permeation, in vitro, which involves the use of electric current to permeabilise skin and/or promote the migration of drug ions across skin (Cullander, 1992; Guy et al., 2001; Kalia et al., 2004). Anodal treatment was conducted by placing the anode electrode in the donor compartment and the opposite electrode (cathode) in the receptor compartment of the Franz cell. Cathodal iontophoresis was conducted vice versa. The current treatment protocols employed were either • (a) iontophoresis: dose was administered simultaneously with current or • (b) post-iontophoresis: dose applied immediately after skin exposure to current. • A current intensity of 0.40 mA was employed for a 10 min period during both protocols. Novel Device (Rotatinig Brush) Procedure

Data set [2] can be described thus: In vitro skin permeation, Franz cell pseudo-finite dose study (acyclovir and CF). In kind it is in vitro ADME, human. As to conditions: for Amount in receptor after 60 min: Zovirax cream spiked with 3H-ACV; for EF: acyclovir, vs untreated skin. On the procedure:
Zovirax® spiked with ^3H-ACV was used as the formulation for the entire study. Briefly, 300 μl of ^3H ACV was placed into a 1.5 ml centrifuge tube and evaporated off, over a stream of air. Approximately 1 g of Zovirax® was weighed into the centrifuge tube and carefully mixed with a fine spatula to achieve a homogenous mix. To test for homogeneity, 3 random samples (top, middle and bottom) were taken and determined for radioactivity via scintillation counting.
Anodal treatment was conducted by placing the anode electrode in the donor compartment and the opposite electrode (cathode) in the receptor compartment of the Franz cell. Cathodal iontophoresis was conducted vice versa. The current treatment protocols employed were either • (a) iontophoresis: dose was administered simultaneously with current or • (b) post-iontophoresis: dose applied immediately after skin exposure to current. • A current intensity of 0.40 mA was employed for a 10 min period during both protocols. Novel Device (Rotatinig Brush) Procedure
Finite dose permeation experiments were performed using similar conditions as described above. The Franz cell studies were carried out without the use of a donor well, in order to allow for the placement of the iontophoretic device over the epidermal membrane. […] The effectiveness of the seal was confirmed if leakage of receptor fluid from the region of contact between skin and adhesive was not observed.
A formulation with a target dose of approximately 9±1 mg/cm^2 (ACV) and 20±2 mg/cm^2 (CF) was applied to the epidermal membrane surface using a previously calibrated positive displacement pipette. Selected control experiments were then performed as described above (anodal and cathodal iontophoresis was performed by simultaneous application of dose and current over a 10 min period for CF and ACV respectively). At certain time intervals 200 μl of the receiver fluid was carefully withdrawn from the receiver fluid (maximum duration of 4 h). Approximately 4 ml of scintillation cocktail was then added and the ACV sample analysed by scintillation counting, whereas the other penetrant was assayed via the HPLC method already described.

Data set [3] in a line: In vitro skin permeation, Franz cell infinite dose study (optimisation studies with MP, BP, CF). As to conditions: CF; for EF enhancement factor: flux vs untreated skin.
The mark [4] stands for this setting: Table 4a, brush A 450 Nm^−2/20 s, 80 rpm.
Setting [5] is: Table 4a, brush A 450 Nm^−2/45 s, 80 rpm.
Setting [6] is: Table 4a, brush A 1200 Nm^−2/45 s, 80 rpm.
The mark [7] stands for this setting: Table 5a, EtOH/PBS (50% ethanol donor solution).
Where [8] appears, read: Table 5a, brush A 450 Nm^−2, 45 s, 80 rpm.
Setting [9] is: Table 5a, brush B 300 Nm^−2, 15 s, 80 rpm.
The mark [10] stands for this setting: Table 5a, brush B 300 Nm^−2, 25 s, 80 rpm.
[11] abbreviates: brush B 10 s, 300 Nm^−2, 80 rpm.
The mark [12] stands for this setting: brush B 30 s, 300 Nm^−2, 80 rpm.
Setting [13] is: brush B 60 s, 300 Nm^−2, 80 rpm.

In the case of `CC[C@H](C)[C@H](NC(=O)[C@H](Cc1ccc(O)cc1)NC(=O)[C@@H](NC(=O)[C@H](CCCNC(=N)N)NC(=O)[C@@H](N)CC(=O)O)C(C)C)C(=O)N[C@@H](Cc1cnc[nH]1)C(=O)N1CCC[C@H]1C(=O)N[C@@H](Cc1ccccc1)C(=O)O` [Ang II, Angiotensin II], the EF in data set [1] (4 h, delipidisation vs untreated skin) was found to be 58; in data set [1] (4 h, post-iontophoresis vs untreated skin) it was 1.7; in data set [1] (4 h, rotating brush (brush B) vs untreated skin), 72; in data set [1] (4 h, tape-stripping vs untreated skin), 53; in data set [1] (24 h, delipidisation vs untreated skin), 49; in data set [1] (24 h, post-iontophoresis vs untreated skin), 6. The EF is on record as 63 in data set [1] (24 h, rotating brush (brush B) vs untreated skin) and 27 in data set [1] (24 h, tape-stripping vs untreated skin). For the same compound, the “Amount in receptor after 4 h” value in data set [1] (delipidisation) is on record as 15.71 ± 2.85 ng/cm^2; in data set [1] (post-iontophoresis, value on sample re-analysis), 0.46 ± 0.15^+ ng/cm^2; in data set [1] (rotating brush (brush B)), 19.45 ± 0.55 ng/cm^2; in data set [1] (tape-stripping), 14.44 ± 4.73 ng/cm^2; in data set [1] (untreated skin, 1 mg/ml in PBS), 0.27 ± 0.23 ng/cm^2. The “Amount in receptor after 24 h” value in data set [1] (delipidisation) is 83.03 ± 24.28 ng/cm^2; in data set [1] (post-iontophoresis), 10.02 ± 6.28 ng/cm^2; in data set [1] (rotating brush (brush B)), 107.49 ± 19.66 ng/cm^2; in data set [1] (tape-stripping), 46.93 ± 15.62 ng/cm^2; in data set [1] (untreated skin, 1 mg/ml in PBS), 1.69 ± 1.01 ng/cm^2.

As for `Cn1c(=O)c2c(ncn2C)n(C)c1=O` [CF, Caffeine], the “Amount of CF in receptor after 30 min compared with other methods of enhancement” value in data set [2] (pseudo-finite dose, brush B 300 Nm^−2/25 s) was “at least double”. Further, the “Amount of CF deposited in receptor compartment compared with untreated skin” value in data set [2] (pseudo-finite dose, chemical enhancement method (50% ethanol)) is given as “not to be significantly different”. Besides, the “Time after which presence of CF in receptor was determined” value in data set [2] (pseudo-finite dose, untreated skin and chemical enhancement, limit of detection 0.05 ug/ml) turned out to be 120 min. Moreover, the “Reduction of lag times relative to original value” in data set [3] (brush A, altering pressure or duration of treatment) was approximately 75%. Also, the KP permeability coefficient is given as 5.04 ± 1.30 10^−8 cm/s in data set [3] (setting [4]); 7.95 ± 0.42 10^−8 cm/s in data set [3] (setting [5]); 8.97 ± 4.06 10^−8 cm/s in data set [3] (setting [6]); 25.66 ± 12.28 10^−8 cm/s in data set [3] (Table 4a, delipidised skin); 3.39 ± 0.75 10^−8 cm/s in data set [3] (Table 4a, untreated skin); 141.4 ± 31.21 10^−8 cm/s in data set [3] (setting [7]). Also, the KP permeability coefficient is listed as 41.61 ± 14.19 10^−8 cm/s in data set [3] (setting [8]); 342.4 ± 170.1 10^−8 cm/s in data set [3] (setting [9]); 589.93 ± 207.62 10^−8 cm/s in data set [3] (setting [10]); 99.68 ± 26.84 10^−8 cm/s in data set [3] (Table 5a, delipidised skin). Also, the TL lag time came to 68.33 ± 17.76 min in data set [3] (setting [4]); 41.21 ± 8.09 min in data set [3] (setting [5]); 16.74 ± 6.50 min in data set [3] (setting [6]); 4.19 ± 1.39 min in data set [3] (Table 4a, delipidised skin); 77.66 ± 12.96 min in data set [3] (Table 4a, untreated skin); 26.71 ± 9.26 min in data set [3] (setting [7]). Besides, the TL lag time in data set [3] (setting [8]) came out at 16.74 ± 3.99 min; in data set [3] (Table 5a, untreated skin), 19.69 ± 3.54 min. The EF enhancement factor in data set [3] (setting [4]) stood at 1.47; in data set [3] (setting [5]) it was 2.34; in data set [3] (setting [6]), 2.64; in data set [3] (Table 4a, delipidised skin), 7.47; in data set [3] (Table 5a, EtOH/PBS), 15.46; in data set [3] (setting [8]) it was 4.55. Moreover, the EF enhancement factor was 37.41 in data set [3] (setting [9]); 64.44 in data set [3] (setting [10]); 10.93 in data set [3] (Table 5a, delipidised skin). For the same compound, the JS flux in data set [3] (Table 4a, brush A 450 Nm^−2/20 s, 80 rpm, n = 2) is 10.3 ± 2.67^p 10^−4 μg/cm/s; in data set [3] (setting [5]), 16.3 ± 0.86* 10^−4 μg/cm/s; in data set [3] (setting [6]), 18.4 ± 8.93* 10^−4 μg/cm/s; in data set [3] (Table 4a, delipidised skin), 52.25 ± 25.17* 10^−4 μg/cm/s; in data set [3] (setting [8]), 8.52 ± 0.29* 10^−4 μg/cm/s.

Consider `Nc1nc2c(ncn2COCCO)c(=O)[nH]1` [acyclovir, Acyclovir], for which the “Amount in receptor after 60 min” value was 5.06 ± 1.88 µg/cm^2 in data set [2] (setting [11]); 12.5 ± 4.02 µg/cm^2 in data set [2] (setting [12]); 30.91 ± 5.45 µg/cm^2 in data set [2] (setting [13]); 4.95 ± 2.35 µg/cm^2 in data set [2] (cathodal iontophoresis 10 min, 0.40 mA); 0.14 ± 0.08 µg/cm^2 in data set [2] (untreated skin). Besides, the EF was 36 in data set [2] (setting [11]), 89 in data set [2] (setting [12]), 220 in data set [2] (setting [13]) and 35 in data set [2] (cathodal iontophoresis 10 min). In data set [2] (brush B at maximum treatment time (60 s)), the “Increase in enhancement factor compared to iontophoresis” value was “ca. 600%”.
